Test results reported in PMC6376162, “HEXIM1 Peptide Exhibits Antimicrobial Activity Against Antibiotic Resistant Bacteria Through Guidance of Cell Penetrating Peptide” (Frontiers in Microbiology, 2019).
Values after ≈ are worked out from the molar mass of the structure shown. Residues, ends and D or L forms follow the SMILES beside them.

Assays:
P. aeruginosa 544 = type: cell-based, Pseudomonas aeruginosa; conditions: 544, 20 h
Description: (§1) Bacterial strains were either purchased from American Type Culture Collection (ATCC, United States) or provided by National University Hospital, Singapore. Prior to assays, all bacteria, except for Enterococcus faecalis, were grown overnight to stationary phase at 37°C in Luria Bertani (LB) broth (Novagen, Germany). The overnight cultures were 10-fold diluted in fresh cation-adjusted Mueller Hinton II broth (MHBII) (Becton Dickinson, United States) and grown for additional few hours at 37°C to obtain mid-log phase culture. E. faecalis strains were grown in M17 broth (Becton Dickenson, United States) for both overnight and mid-log phase culturing. Human keratinocyte cell line, HaCaT, was purchased from Creative Bioarray (United States) and cultured in Dulbecco’s Modified Eagle’s medium with 4.5 g/L glucose, 2 mM L-glutamine, and 10% fetal bovine serum.
(§2) Minimum inhibition concentrations (MICs) were determined by using broth microdilution method in a 96-well microtiter plate according to guidelines of the Clinical and Laboratory Standards Institute ([CLSI, 2012]). Briefly, mid-log phase cultures were diluted with MHBII and added to wells containing serially diluted peptides to give final cell concentration of 5 × 10^5 cells ml^−1. Peptides were prepared in twofold serial dilution series to give a final concentration range from 2 to 128 μM. Cecropin P1 (CECP1) and Cap11-1-18m^2 (CapM2) treated cells were used as positive controls, while untreated cells were used as a negative control.
(§3) To further assess the potency of peptides, wells with no visible growth from MIC tests were subsequently plated on LB agar plates and incubated overnight at 37°C. […] Both MIC and MBC assays were conducted on three to five separate occasions and if results were within one doubling dilutions of each other, the highest reading was recorded for analysis.

E. faecalis VRE = type: cell-based, Enterococcus faecalis; conditions: 20 h
Description: as §1, §2, §3

S. aureus 43300 = type: cell-based, Staphylococcus aureus; conditions: 43300, 20 h
Description: as §1, §2, §3

[1] = test system: Enterococcus faecalis SEN; type: cell-based; conditions: 20 h
Description: as §1, §2, §3

Escherichia coli 25922 = type: cell-based; conditions: 25922, 20 h
Description: as §1, §2, §3

Escherichia coli BAA2523 = type: cell-based; conditions: BAA2523, 20 h
Description: as §1, §2, §3

[2] = test system: Pseudomonas aeruginosa 27853; type: cell-based; conditions: 27853, 20 h
Description: as §1, §2, §3

[3] = test system: Staphylococcus aureus 29213; type: cell-based; conditions: 29213, 20 h
Description: as §1, §2, §3

MIC (P. aeruginosa 544) [µM]	MIC (E. faecalis VRE) [µM]	MIC (S. aureus 43300) [µM]	MIC [1] [µM]	MIC (Escherichia coli 25922) [µM]	MIC (Escherichia coli BAA2523) [µM]	MIC [2] [µM]	MIC [3] [µM]	Compound	MBC (P. aeruginosa 544) [µM]	MBC (E. faecalis VRE) [µM]	MBC (S. aureus 43300) [µM]	MBC [1] [µM]	MBC (Escherichia coli 25922) [µM]	MBC (Escherichia coli BAA2523) [µM]	MBC [2] [µM]	MBC [3] [µM]
16 (≈ 53.4 µg/mL)	>128	>128	>128	4 (≈ 13.4 µg/mL)	64 (≈ 214 µg/mL)	16 (≈ 53.4 µg/mL)	>128	CC[C@H](C)[C@H](NC(=O)CNC(=O)[C@H](CCC(=O)O)NC(=O)[C@H](CO)NC(=O)[C@@H](NC(=O)[C@H](CCCNC(=N)N)NC(=O)[C@H](CCCCN)NC(=O)[C@H](CCCCN)NC(=O)[C@H](C)NC(=O)[C@H](CO)NC(=O)[C@H](CC(N)=O)NC(=O)[C@H](CCC(=O)O)NC(=O)[C@H](CC(C)C)NC(=O)[C@H](CCCCN)NC(=O)[C@H](CCCCN)NC(=O)[C@H](C)NC(=O)[C@@H](NC(=O)[C@H](CCCCN)NC(=O)[C@H](CO)NC(=O)[C@H](CC(C)C)NC(=O)[C@H](Cc1c[nH]c2ccccc12)NC(=O)[C@@H](N)CO)[C@@H](C)O)[C@@H](C)CC)C(=O)N[C@@H](C)C(=O)N[C@H](C(=O)N[C@@H](C)C(=O)N[C@H](C(=O)N[C@@H](CCC(N)=O)C(=O)NCC(=O)NCC(=O)N1CCC[C@H]1C(=O)N[C@@H](CCCNC(=N)N)C(=O)O)[C@@H](C)CC)[C@@H](C)CC [CECP1, Cecropin P1, reference compound] (H-SWLSKTAKKLENSAKKRISEGIAIAIQGGPR-OH)	32 (≈ 107 µg/mL)	>128	>128	>128	4 (≈ 13.4 µg/mL)	64 (≈ 214 µg/mL)	32 (≈ 107 µg/mL)	>128
16 (≈ 37.4 µg/mL)	16 (≈ 37.4 µg/mL)	16 (≈ 37.4 µg/mL)	16 (≈ 37.4 µg/mL)	16 (≈ 37.4 µg/mL)	32 (≈ 74.8 µg/mL)	16 (≈ 37.4 µg/mL)	16 (≈ 37.4 µg/mL)	CC[C@H](C)[C@H](NC(=O)[C@H](CC(C)C)NC(=O)[C@H](CCCCN)NC(=O)[C@H](CC(C)C)NC(=O)[C@H](CC(C)C)NC(=O)[C@H](CCCCN)NC(=O)[C@H](CCCNC(=N)N)NC(=O)[C@H](Cc1ccccc1)NC(=O)[C@H](CC(C)C)NC(=O)[C@H](CCCCN)NC(=O)[C@H](CCCNC(=N)N)NC(=O)[C@H](CC(C)C)NC(=O)[C@@H](N)CCCCN)C(=O)N[C@@H](CCCNC(=N)N)C(=O)N[C@@H](CCCCN)C(=O)N[C@@H](CC(C)C)C(=O)N[C@@H](CC(C)C)C(=O)N[C@@H](CCCNC(=N)N)C(=O)O [CapM2, Cap11-1-18m^2, reference compound] (H-KLRKLFRKLLKLIRKLLR-OH)	32 (≈ 74.8 µg/mL)	16 (≈ 37.4 µg/mL)	16 (≈ 37.4 µg/mL)	16 (≈ 37.4 µg/mL)	32 (≈ 74.8 µg/mL)	64 (≈ 150 µg/mL)	32 (≈ 74.8 µg/mL)	32 (≈ 74.8 µg/mL)
